Source: ChEMBL document CHEMBL4433249, “New sensible method to quantize the intestinal absorption of receptor ligands” (Bioorg Med Chem, 2019)

Experiments:
[1] = Drug retention in Wistar rat everted gut sac at 300 nM; format: ADME, tissue-based, Intestine; conditions: 0.3 µM
[2] = Drug absorption in Wistar rat small intestinal serosal fluid at 10000 nM incubated for 60 mins by HPLC-DAD analysis; format: ADME; conditions: 1 h, 10 µM
[3] = Drug absorption in Wistar rat small intestinal serosal fluid at 3000 nM incubated for 60 mins by HPLC-DAD analysis; format: ADME; conditions: 1 h, 3 µM
[4] = (§1) Drug absorption in Wistar rat small intestinal serosal fluid assessed as displacement of [3H]HEMADO from recombinant human A3 receptor expressed in CHO cells at 300 nM exposed to serosal fluid derived from 60 mins compound treated sac followed by further incubation for 3 hrs by scintillation counting based radioligand binding assay; format: cell-based; conditions: 0.3 µM
[5] = as §1, with “1000” for “300”; format: cell-based; conditions: 1 µM
[6] = as §1, with “3000” for “300”; format: cell-based; conditions: 3 µM
[7] = as §1, with “10000” for “300”; format: cell-based; conditions: 10 µM
[8] = as §1, with “mucosal” for “serosal”; format: cell-based, Mucosa of small intestine; conditions: 0.3 µM
[9] = as §1, with “mucosal” for “serosal”, “1000” for “300”; format: cell-based, Mucosa of small intestine; conditions: 1 µM
[10] = as §1, with “mucosal” for “serosal”, “3000” for “300”; format: cell-based, Mucosa of small intestine; conditions: 3 µM
[11] = as §1, with “mucosal” for “serosal”, “10000” for “300”; format: cell-based, Mucosa of small intestine; conditions: 10 µM
[12] = Drug retention in Wistar rat everted gut sac at 1000 nM; format: ADME, tissue-based, Intestine; conditions: 1 µM
[13] = Drug retention in Wistar rat everted gut sac at 3000 nM; format: ADME, tissue-based, Intestine; conditions: 3 µM
[14] = Drug retention in Wistar rat everted gut sac at 10000 nM; format: ADME, tissue-based, Intestine; conditions: 10 µM
[15] = Drug absorption in Wistar rat everted gut sac at 300 nM; format: ADME, tissue-based, Intestine; conditions: 0.3 µM
[16] = Drug absorption in Wistar rat everted gut sac at 1000 nM; format: ADME, tissue-based, Intestine; conditions: 1 µM
[17] = Drug absorption in Wistar rat everted gut sac at 3000 nM; format: ADME, tissue-based, Intestine; conditions: 3 µM
[18] = Drug absorption in Wistar rat everted gut sac at 10000 nM; format: ADME, tissue-based, Intestine; conditions: 10 µM
[19] = Apparent permeability of the compound across Wistar rat everted gut sac at 300 nM; format: ADME, tissue-based, Intestine
[20] = Apparent permeability of the compound across Wistar rat everted gut sac at 1000 nM; format: ADME, tissue-based, Intestine
[21] = Apparent permeability of the compound across Wistar rat everted gut sac at 3000 nM; format: ADME, tissue-based, Intestine
[22] = Apparent permeability of the compound across Wistar rat everted gut sac at 10000 nM; format: ADME, tissue-based, Intestine

**Q.** What does the source list for `CNC(=O)[C@H]1O[C@@H](n2cnc3c(NC)nc(C#Cc4ccccc4)nc32)[C@H](O)[C@@H]1O`?
**A.** Drug uptake [1]: 44%; Drug absorption [2]: 2000 nM; Drug absorption [3]: 550 nM; Drug absorption [4]: 36 nM; Drug absorption [5]: 119 nM; Drug absorption [6]: 373 nM; Drug absorption [7]: 1180 nM; Drug absorption [8]: 133 nM; Drug absorption [9]: 224 nM; Drug absorption [10]: 857 nM; Drug absorption [11]: 2088 nM; Drug uptake [12]: 65%; Drug uptake [13]: 59%; Drug uptake [14]: 67%; Drug absorption [15]: 12%; Drug absorption [16]: 11.9%; Drug absorption [17]: 12.4%; Drug absorption [18]: 11.8%; Papp at 0.3 µM [19]: 8.5 ×10⁻⁶ cm/s; Papp at 1 µM [20]: 8.4 ×10⁻⁶ cm/s; Papp at 3 µM [21]: 8.5 ×10⁻⁶ cm/s; Papp at 10 µM [22]: 8.4 ×10⁻⁶ cm/s
